Values after ≈ are worked out from the molar mass of the structure shown. Values joined by “and” are separate entries in the source; they are usually repeats but may differ in a detail not shown here. Equal values may be shown once. Read-outs that look alike come from different tables or passages of the source.
How the values were obtained:
[1] = system: P. berghei NK65 ANKA strain; details: cited from earlier work
[2] = target: T1, PfDHODH (Plasmodium falciparum, UniProt Q08210); test: PfDHODH DCIP dye-based enzyme assay; assay type: biochemical; details: for IC50: IC50 PfDHODH
T1 sequence (Q08210 158-569 limits assumed): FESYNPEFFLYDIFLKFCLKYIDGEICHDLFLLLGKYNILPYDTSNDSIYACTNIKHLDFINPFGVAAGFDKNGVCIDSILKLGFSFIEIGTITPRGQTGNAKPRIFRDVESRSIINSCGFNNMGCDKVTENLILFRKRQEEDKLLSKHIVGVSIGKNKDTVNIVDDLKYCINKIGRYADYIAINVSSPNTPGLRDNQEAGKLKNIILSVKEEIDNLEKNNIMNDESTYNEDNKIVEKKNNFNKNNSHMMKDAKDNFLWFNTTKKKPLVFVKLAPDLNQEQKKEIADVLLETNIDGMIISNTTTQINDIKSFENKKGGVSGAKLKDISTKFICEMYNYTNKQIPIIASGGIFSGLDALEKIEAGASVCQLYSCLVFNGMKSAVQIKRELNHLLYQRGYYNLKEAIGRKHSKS

[3] = Non-equilibrium solubility by nephelometry, pH 6.5; assay type: physicochemical; details: for solubility: phosphate buffer
[4] = target: human albumin (Homo sapiens, UniProt P02768); test: Protein binding estimated on human albumin column; assay type: in vitro ADME; details: human albumin chromatographic method
Sequence of human albumin (P02768 25-609): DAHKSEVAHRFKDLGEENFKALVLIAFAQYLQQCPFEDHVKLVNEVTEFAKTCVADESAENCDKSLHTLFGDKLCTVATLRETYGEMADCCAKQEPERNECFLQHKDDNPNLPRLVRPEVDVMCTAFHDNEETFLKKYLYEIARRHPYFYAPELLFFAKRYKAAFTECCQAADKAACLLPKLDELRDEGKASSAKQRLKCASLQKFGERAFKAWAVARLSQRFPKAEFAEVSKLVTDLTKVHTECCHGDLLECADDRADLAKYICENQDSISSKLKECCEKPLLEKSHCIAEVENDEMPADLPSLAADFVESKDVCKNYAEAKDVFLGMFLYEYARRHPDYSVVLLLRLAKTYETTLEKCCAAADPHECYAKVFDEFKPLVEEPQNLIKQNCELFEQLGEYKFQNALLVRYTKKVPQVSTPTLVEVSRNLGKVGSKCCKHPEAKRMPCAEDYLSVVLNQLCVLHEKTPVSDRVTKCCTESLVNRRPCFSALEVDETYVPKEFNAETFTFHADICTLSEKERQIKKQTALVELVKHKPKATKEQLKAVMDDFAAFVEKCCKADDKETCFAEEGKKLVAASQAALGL

[5] = In vitro metabolism in human liver microsomes; assay type: in vitro ADME; details: for microsomal CLint at 1 μM: microsomes, pH 7.4; for Eh Human: predicted hepatic extraction ratio
[6] = In vitro metabolism in mouse liver microsomes; assay type: in vitro ADME; details: for Eh Mouse: predicted hepatic extraction ratio
[7] = Mouse systemic exposure after single oral dose; assay type: in vivo; details: single oral dose 20 mg/kg, plasma
[8] = Rat pharmacokinetics after IV and oral administration; assay type: in vivo; details: for adverse reactions following IV or oral administration: either dose route; for clearance: male, Sprague Dawley, in vivo, iv
[9] = system: rat plasma proteins; test: Protein binding in rat plasma by ultracentrifugation; assay type: in vitro ADME; details: 37°C
[10] = system: P. berghei NK65 ANKA strain; test: Peter's test, P. berghei efficacy in mice; assay type: in vivo, Plasmodium berghei; details: for ED50: Plasmodium berghei, in Mus musculus, po, read-out: ED50 95% confidence interval; for adverse reactions attributed to drug: any of the dose levels, efficacy study in mice
[11] = ref [13], [15], cited from earlier work; for Eh Human: predicted hepatic extraction ratio
[12] = system: P. falciparum 3D7 cells; test: P. falciparum whole cell assay; assay type: cell-based, Plasmodium falciparum
[13] = target: hDHODH (Homo sapiens, UniProt Q02127); details: read-out: IC50 hDHODH; reported previously; ref [13], [15]; cited from earlier work
Sequence of hDHODH (Q02127 31-395 limits assumed): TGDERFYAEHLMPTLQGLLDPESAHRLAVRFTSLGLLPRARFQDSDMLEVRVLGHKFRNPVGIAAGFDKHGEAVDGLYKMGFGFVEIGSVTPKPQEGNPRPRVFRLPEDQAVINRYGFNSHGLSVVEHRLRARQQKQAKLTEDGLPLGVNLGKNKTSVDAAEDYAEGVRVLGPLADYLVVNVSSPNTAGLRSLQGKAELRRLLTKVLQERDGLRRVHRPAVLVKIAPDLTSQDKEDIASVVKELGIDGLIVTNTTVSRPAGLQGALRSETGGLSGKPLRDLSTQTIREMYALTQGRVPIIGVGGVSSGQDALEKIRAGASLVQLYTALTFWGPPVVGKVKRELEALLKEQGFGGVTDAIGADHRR

[14] = system: P. falciparum 3D7 cells; details: cited from earlier work
[15] = ref [13], [15], cited from earlier work

CCN(CC)CCCC(C)Nc1ccnc2cc(Cl)ccc12 (stereo not drawn) [chloroquine, reference compound]
ED50 in this model ([1]; previous reports, ref [20]): ~2 mg/kg

Cc1cc(Nc2cc(F)c(C(F)(F)F)c(F)c2)n2ncnc2n1 [Compound 32, N-(3,5-difluoro-4-(trifluoromethyl)phenyl)-5-methyl-[1,2,4]triazolo[1,5-a]pyrimidin-7-amine]
IC50 [2]: < 300 nM
aqueous solubility at pH 6.5 (in words) [3]: poorly soluble
solubility [3]: 9 to 18 µM (≈ 2.96 to 5.93 µg/mL)
Human Plasma Binding [4]: 96.6%
microsomal CLint at 1 μM [5]: < 6 µL/min/mg
Eh Human [5]: <0.2/<0.2
Eh Mouse [6]: <0.2/<0.2
Time above 1 μM ([7]; 20 mg/kg): 19 h
adverse reactions following IV or oral administration [8]: No adverse reactions
clearance ([8]; 0.9 mg/kg): 2.3 mL/min/kg
clearance ([8]; 2.9 mg/kg): 1.5 mL/min/kg
binding to rat plasma proteins [9]: 97.3%
parasite clearance (in words) ([10]; 50 mg/kg BID): parasite free on day 5
mice remaining parasite free through day 7 ([10]; 100 mg/kg BID, parasites reemerged on day 9): 4/5
parasite clearance (in words) ([10]; 100 mg/kg QD): parasite free on day 5
ED50 [10]: 7.6 to 13 mg/kg
adverse reactions attributed to drug [10]: No adverse reactions

Cc1cc(Nc2ccc(C(F)(F)F)cc2)n2ncnc2n1 [Compound 2, (5-methyl-[1,2,4]triazolo[1,5-a]pyrimidin-7-yl)-(4-trifluoromethyl-phenyl)-amine]
solubility [3]: 21 to 43 µM (≈ 6.16 to 12.6 µg/mL)
Human Plasma Binding [4]: 86.9%
CLint Human ([11]; human liver microsomes, reported previously): 8/ND ^a μL/min/mg protein
Eh Human [11]: 0.29/ND ^a
suppression of parasitemia ([1]; 50 mg/kg BID, 24 h after the last dose, ref [15]): 90%

Cc1cc(Nc2ccc(S(F)(F)(F)(F)F)cc2)n2ncnc2n1 [Compound 21, N-(4-Pentafluorosulfenylphenyl)-5-methyl-[1,2,4]triazolo[1,5-a]pyrimidin-7-amine]
IC50 [2]: < 300 nM
fold better activity (lower IC50) against PfDHODH than 2 ([2]; comparator 2): 2-3 fold
fold EC50 above the levels for the comparator anti-malarial drugs [12]: 10-200 fold
solubility [3]: 71 to 142 µM (≈ 24.9 to 49.9 µg/mL)
Human Plasma Binding [4]: 95.4%
microsomal CLint at 1 μM [5]: < 6 µL/min/mg
Eh Human [5]: <0.2/<0.2
Eh Mouse [6]: <0.2/<0.2
Time above 1 μM ([7]; 20 mg/kg): 18 h
adverse reactions following IV or oral administration [8]: No adverse reactions
clearance ([8]; 5.1 mg/kg): 1.2 mL/min/kg
binding to rat plasma proteins [9]: 95.2%
parasite clearance (in words) ([10]; 50 mg/kg BID): none of the mice were parasite free on any day
parasite clearance (in words) ([10]; 100 mg/kg QD): none of the mice were parasite free on any day
ED50 [10]: 10 to 29 mg/kg
adverse reactions attributed to drug [10]: No adverse reactions

Cc1cc(Nc2ccc3ccccc3c2)n2ncnc2n1 [Compound 1, (5-methyl-[1,2,4]triazolo[1,5-a]pyrimidin-7-yl)-naphthalen-2-yl-amine]
solubility [3]: 45 to 90 µM (≈ 12.4 to 24.8 µg/mL)
Human Plasma Binding [4]: 93.8%
IC50 [13]: > 200000 nM
EC50 ([14]; read-out: EC50 Pf 3D7 cells, serum media, reported previously, ref [13], [15]): 76 nM
IC50 ([14]; read-out: IC50 against the parasite, initial lead, ref [15]): 50 to 100 nM
Eh Human [11]: 0.84
CLint Mouse ([15]; mouse liver microsomes, reported previously): 229 μL/min/mg protein
Eh Mouse ([15]; predicted hepatic extraction ratio, mouse): 0.91

Cc1cc(Nc2ccc(C(C)(C)C)c(F)c2)n2ncnc2n1 [Compound 29, N-(4-tert-Butyl-3-fluorophenyl)-5-methyl-[1,2,4]triazolo[1,5-a]pyrimidin-7-amine]
IC50 ([2]; stated in text): < 100 nM and ~30 nM
fold decrease in PfDHODH IC50 vs 15 ([2]; comparator 15): 2 fold
aqueous solubility at pH 6.5 (in words) [3]: poorly soluble
Human Plasma Binding [4]: 96.4%
microsomal CLint at 1 μM [5]: > 30 µL/min/mg
microsomal CLint at 1 μM ([6]; microsomes, pH 7.4): > 30 µL/min/mg
Time above 1 μM [7]: <1 h

— article PMC3124361 (Journal of medicinal chemistry, 2011)
